The target in one experiment is T1, pancreatic lipase (Sus scrofa, UniProt P00591).
T1 construct: pancreatic lipase (from porcine pancreas, Sigma); purchased Sigma; host or cells: porcine pancreas
T1 sequence (P00591 1-450): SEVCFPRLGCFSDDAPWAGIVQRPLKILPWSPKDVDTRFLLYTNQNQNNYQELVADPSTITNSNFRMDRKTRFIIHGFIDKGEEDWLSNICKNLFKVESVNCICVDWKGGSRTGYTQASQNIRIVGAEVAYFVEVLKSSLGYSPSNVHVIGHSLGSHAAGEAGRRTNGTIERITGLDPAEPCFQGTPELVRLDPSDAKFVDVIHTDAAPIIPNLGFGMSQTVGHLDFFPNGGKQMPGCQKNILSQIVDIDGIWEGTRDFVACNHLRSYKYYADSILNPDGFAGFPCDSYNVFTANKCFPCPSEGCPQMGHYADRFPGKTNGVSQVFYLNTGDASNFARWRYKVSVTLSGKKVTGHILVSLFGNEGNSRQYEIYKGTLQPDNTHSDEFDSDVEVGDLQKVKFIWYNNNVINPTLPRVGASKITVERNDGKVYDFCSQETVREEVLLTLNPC
As to the kind of experiment: Pancreatic lipase activity, triolein substrate. The format is biochemical, porcine. Conditions: Fig. 2D. Here is the method: • Figure 1. Structure of compounds 1 to 3 (reference) and compound 4 (atglistatin) and effect on ATGL activity. For determination of lipase activity, lysates of E. coli overexpressing recombinant strep-tagged ATGL and CGI-58 were incubated with a substrate containing radiolabeled [9,10-3H(N)]-triolein. Subsequently, FA were extracted and quantified by liquid scintillation counting. Lysates of cells expressing empty vector were set as blank. Inhibitors were solubilized in DMSO and added at the indicated concentrations. DMSO alone was used as negative control. (A) Structure and IC50 values of compounds 1-4. (B) Dose-dependent inhibition of ATGL in the presence of compound 3 and 4. […] (C) Lineweaver-Burk plots for kinetic analysis of ATGL inhibition. Experiments were performed at varying concentrations of substrate (0.05 - 3 mM) in presence and absence of compound 4 (Atglistatin). […] Lipase activity of ATGL, HSL, lipoprotein lipase, and pancreatic lipase was determined using triolein as substrate. MGL activity was detected in the presence of rac-(1,3)-monooleoylglycerol as substrate. […] The release of FA (A) and glycerol (B) in the media was determined using commercial kits. […] At the indicated timepoints blood was taken retroorbitally and plasma parameters were measured using commercial kits. […] 8 h after gavage blood was taken retroorbitally and plasma parameters were measured using commercial kits. […]

A short description of experiment [1]: Inhibition of lipolysis in vivo, oral gavage in fasted mice, plasma parameters. Set-up: species or system C57BI/6J mice. Here is the method:
• Figure 1. Structure of compounds 1 to 3 (reference) and compound 4 (atglistatin) and effect on ATGL activity. For determination of lipase activity, lysates of E. coli overexpressing recombinant strep-tagged ATGL and CGI-58 were incubated with a substrate containing radiolabeled [9,10-3H(N)]-triolein. Subsequently, FA were extracted and quantified by liquid scintillation counting. Lysates of cells expressing empty vector were set as blank. Inhibitors were solubilized in DMSO and added at the indicated concentrations. DMSO alone was used as negative control. (A) Structure and IC50 values of compounds 1-4. (B) Dose-dependent inhibition of ATGL in the presence of compound 3 and 4. […] (C) Lineweaver-Burk plots for kinetic analysis of ATGL inhibition. Experiments were performed at varying concentrations of substrate (0.05 - 3 mM) in presence and absence of compound 4 (Atglistatin). […] Data are presented as mean +/-S.D. of triplicate determinations. Data for compound 4 are representative for at least three independent experiments. • Figure 2. Selectivity of Atglistatin. Lipase activity of ATGL, HSL, lipoprotein lipase, and pancreatic lipase was determined using triolein as substrate. MGL activity was detected in the presence of rac-(1,3)-monooleoylglycerol as substrate. Inhibitors were solubilized in DMSO and added at the indicated concentrations. DMSO alone was used as negative control. (A) Dose-dependent inhibition of TG hydrolase activity in WAT lysates obtained from wild-type and ATGL-ko mice. (B) Inhibition of TG hydrolase activity in wild-type WAT lysates by Atglistatin (40 µM) and by the HSL inhibitor Hi 76-0079 (20 µM). (C) Effect of Atglistatin on murine MGL (purified from E. coli), and murine HSL (overexpressed in COS-7 lysates) activity. (D) Effect of Atglistatin on purified bovine LPL (Sigma) and pancreatic lipase (from porcine pancreas, Sigma). Data are presented as mean +/- S.D. of triplicate determinations and are representative for at least three independent experiments (p < 0.05 **, p < 0.01; ***, p < 0.001). • Figure 3 Inhibition of lipolysis in 3T3-L1 adipocytes and WAT organ cultures. (A,B) Differentiated 3T3 cells were preincubated with the indicated concentrations of Atglistatin. Thereafter, the medium was replaced by DMEM containing 2% BSA (fatty acid free), 10 µM forskolin, in the presence or absence of inhibitors. The release of FA (A) and glycerol (B) in the media was determined using commercial kits. Basal FA and glycerol release (not shown) was barely detectable under the applied conditions. Data are presented as mean +/- SD and are representative for 2 independent experiments. (C-F) Effect of Atglistatin on WAT basal (C, D) and forskolin-stimulated (E, F) lipolysis. Adipose tissue pieces (∼15 mg, n=5 for each concentration) of wild-type mice were cultured for 8 h in DMEM containing 2 % FA-free BSA and the indicated concentrations of Atglistatin. Subsequently, the medium was replaced by identical fresh medium and samples were collected after incubation for another hour in the presence or in the absence of 10 µM forskolin. Atglistatin was solubilized in DMSO and DMSO alone was used as negative control. Data are presented as mean +/- S.D. (*, p < 0.05 **, p < 0.01; ***, p < 0.001). • Figure 4 Inhibition of lipolysis in vivo. (A,B) Time dependent effect of Atglistatin on plasma free fatty acids (FFA) and glycerol levels of mice. C57BI6 mice were fasted overnight (ON) and received an oral gavage containing 100 µmol/kg Atglistatin dissolved in olive oil, or olive oil as control. At the indicated timepoints blood was taken retroorbitally and plasma parameters were measured using commercial kits. (C,D) Dose dependent effect of Atglistatin on plasma FFA and glycerol levels of mice. C57BI6 mice were fasted ON and received an oral gavage containing 0, 50, 100, or 200 µmol/kg Atglistatin dissolved in olive oil, or olive oil as control. 8 h after gavage blood was taken retroorbitally and plasma parameters were measured using commercial kits. […]

The mark [2] stands for this setting: plasma, 200 µmol/kg oral gavage, after 8 h, mean ± S.D., n = 7.
Setting [3] is: up to, 50, 100 or 200 µmol/kg oral gavage, 8 h after gavage.

Marks after values point to notes of the source that are not given here.

Regarding `CN(C)C(=O)Nc1cccc(-c2ccc(N(C)C)cc2)c1` [Atglistatin, atglistatin], the “effect on pancreatic lipase” value on pancreatic lipase was “only minor effects”. Besides, the “plasma levels for glycerol, time course” value in experiment [1] (100 µmol/kg oral gavage in olive oil, between 4 h and 8 h after gavage) was “time dependent decrease”. The “plasma levels for FA, time course” value in experiment [1] (100 µmol/kg oral gavage in olive oil, between 4 h and 12 h after gavage) is recorded as “time dependent decrease”. Besides, in experiment [1] (setting [2]), the FFA was 0.53 ± 0.05*** mmol/L and the Triglycerides was 0.33 ± 0.14** mmol/L. Also, in experiment [1] (setting [3]), the “dose-dependent decrease in plasma FA levels” value is “up to 50%” and the “dose-dependent decrease in plasma glycerol levels” value is given as at most 70%.

(Values after patent EP2948433B1, “ATGLISTATIN AS LIPASE INHIBITOR” (Technische Universität Graz, priority 2013, dated 2014).)
